From publication PMC11478212, “Antitumoral and Antiproliferative Potential of Synthetic Derivatives of Scorpion Peptide IsCT1 in an Oral Cavity Squamous Carcinoma Model” (Molecules, 2024) come the findings set out here.

A short description of series [1]: Resistance to degradation in 25% fetal bovine serum. In kind it is in vitro ADME. The following applies: 25% fetal bovine serum in water, 37 °C, HPLC peak area vs t = 0 h, triplicate; for remaining at 0.5 h: read-out: peptide remaining intact after 30 min; for remaining at 6 h: read-out: peptide remaining intact after 6 h. As for the experimental part: Figure 1 (a) Helical wheel projections of the IsCT1, AFPK-IsCT1, KKK-IsCT1, and IsCT-P peptides were generated using the Heliquest server (https://heliquest.ipmc.cnrs.fr/, accessed on 15 July 2024). In these projections, yellow, gray, and green circles represent hydrophobic amino acids, while blue and pink circles denote hydrophilic amino acids. (b) Resistance to degradation assays for all peptides were performed over 6 h in a solution containing 25% fetal bovine serum (FBS). These experiments were conducted in triplicate and aliquots were collected for analysis at 0, 0.5, 1, 2, 4, and 6 h of incubation. The aliquots were subsequently analyzed using high-performance liquid chromatography (HPLC) after each incubation period. The degradation kinetics of the peptides were determined by comparing the integrated peak area associated with the peptide at the start of the experiment (t = 0 h) with the integrated peak area at subsequent time points (t = 0.5, 1, 2, 4, 6 h). (c) The hemolytic activity of synthetic peptides analogous to IsCT1 was assessed on human erythrocytes within a concentration range of 0.13–128 μmol L^−1 in phosphate-buffered saline (PBS) (n = 3). A 1% solution of sodium dodecyl sulfate (SDS) in PBS served as a positive control, while PBS alone was used as a negative control. (d) A table summarizing the sequences, molecular weights, and physicochemical properties of the IsCT1, AFPK-IsCT1, and KKK-IsCT1 peptides. […]
Stability assays were conducted using GIBCO (Waltham, MA, USA) fetal bovine serum diluted to 25% in water, as described by Torres et al.. Briefly, peptide solutions were added to the serum solution and maintained at 37 °C. The experiments were carried out in triplicate and samples were taken at 0, 0.5, 1, 2, 4, and 6 h post incubation. The degradation kinetics were monitored using liquid chromatography and the percentage of remaining peptides was calculated by integrating the peak area of the peptide.

The subject of another series is FN1 cells. The experiment in a line: MTT cell viability. Format: cell-based. The following applies: FN1 normal human fibroblasts, treatment 24 and 48 h (time of IC50 not given), absorbance 540 nm, N/IC50 = no IC50 for the tested concentrations, no toxicity. As for the experimental part: (§1) Cell survival was assessed using an MTT assay. Tumor (SSC-9 and SSC-25) and normal cells (FN1 and J-774) were incubated in 96-well plates at a density of 10^5 cells/mL for 24 h. Subsequently, treatments were administered as described in Table 1 for 24 and 48 h. After the treatment period, the supernatant was aspirated and 100 μL of MTT at a concentration of 5 mg/mL (Calbiochem—Darmstadt, Germany) was added to the plate and incubated for 3 h at 37 °C with 5% CO2. Afterward, the content was removed and 200 μL of methanol was added to dissolve the formazan crystals. Absorbance was then measured at a wavelength of 540 nm using a microplate reader. The hemolysis assay was performed as previously reported.

The subject of a further series is J774 cells. The experiment in a line: MTT cell viability. In kind it is cell-based. The following applies: J774 normal macrophages, treatment 24 and 48 h (time of IC50 not given), absorbance 540 nm, N/IC50 = no IC50 for the tested concentrations, no toxicity. As for the experimental part:
as §1

In another series the test system is SCC-25 cells. The experiment in a line: MTT cell viability. The following applies: treatment 24 and 48 h (time of IC50 not given), absorbance 540 nm, N/IC50 = no IC50 for the tested concentrations, no toxicity. In kind it is cell-based. Here is the method: as §1
In a further series the test system is SCC-9 cells. The experiment in a line: MTT cell viability. Format: cell-based. The following applies: treatment 24 and 48 h (time of IC50 not given), absorbance 540 nm, N/IC50 = no IC50 for the tested concentrations, no toxicity. Here is the method:
as §1

The test system of series [2] is SCC-25 tumor cells. The experiment in a line: Cell cycle phase and DNA fragmentation analysis (flow cytometry). Format: cell-based. The following applies: 24 h, IsCT-P and AC-AFPK-IsCT1 at IC50, others 100 µM. As for the experimental part: (§2) Figure 3 Analysis of cell cycle phases following a 24 h treatment with synthetic analogs of IsCT1 peptides. The indicated cells were treated at the IC50 values obtained for the IsCT-P and AC-AFPK-IsCT1 peptides and at a concentration of 100 µM for the other peptides. (a) Representative histograms of cell distribution across cell cycle phases; (b) bar graph showing the correlation of the effect on cell cycle and fragmented DNA, expressed as the mean ± SD of three independent SCC-9 tumor cell experiments; (c) bar graph showing the correlation of the effect on cell cycle and fragmented DNA, expressed as the mean ± SD of three independent experiments on SCC-25 tumor cells; (d) bar graph showing the correlation of the effect on cell cycle and fragmented DNA, expressed as the mean ± SD of three independent experiments of normal FN1 cells; (e) bar graph showing the correlation of the effect on cell cycle and fragmented DNA, expressed as the mean ± SD of three independent experiments of normal J774 cells. Statistical differences were obtained using ANOVA and Tukey–Kramer multiple comparison tests. * p < 0.05, ** p < 0.01, and *** p < 0.001 denote significance. ns = not significant.
(§3) Tumor (SSC-9 and SSC-25) and normal cells (FN1 and J-774) were subjected to treatment for 24 h at the peptides’ IC50 concentrations. Treated and control cells were trypsinized and centrifuged at 1200 rpm for 5 min. The resulting pellet was resuspended in 1 mL of cold buffer, followed by the addition of 3 mL of absolute ethanol. Samples were stored at −20 °C for 24 h. The samples were then centrifuged at 1500 rpm for 10 min and resuspended in 200 μL of FACS buffer containing 0.1% Triton X-100 (Sigma-Aldrich, St. Louis, MO, USA), 50 μg/mL propidium iodide (Sigma-Aldrich), and 1 µL of RNAse (200×). This mixture was kept at room temperature and protected from light for 30 min. The samples were then transferred to cytometry tubes and analyzed using a FACScanto flow cytometer (BD) with 10,000 events, and histograms were acquired and analyzed using ModFit LT 5.0 software.

Another series has as its system SCC-9 tumor cells. Described as above. In kind it is cell-based. The following applies: 24 h, 100 µM, compared to the control. Here is the method: as §2, §3
Series [3] relates to SCC-25 tumor cells. As to the kind of experiment: Mitochondrial membrane electrical potential (ΔΨm) by flow cytometry. In kind it is cell-based. The following applies: 24 h, IsCT-P and AC-AFPK-IsCT1 at IC50, others 100 µM, MitoRed, mean ± SD of three independent experiments. Here is the method:
Figure 4 Analysis of mitochondrial electrical potential (ΔΨm) using flow cytometry following a 24 h treatment with synthetic analogs of IsCT1 peptides. The indicated cells were treated at the IC50 values obtained for the IsCT-P and AC-AFPK-IsCT1 peptides and at a concentration of 100 µM for the other peptides. (a) Representative histograms of cell distribution according to ΔΨm; (b) bar graph showing ΔΨm expressed as the mean ± SD of three independent experiments of SCC-9 tumor cells; (c) bar graph showing ΔΨm expressed as the mean ± SD of three independent experiments of SCC-25 tumor cells; (d) bar graph showing ΔΨm expressed as the mean ± SD of three independent experiments of normal FN1 cells; (e) bar graph showing ΔΨm expressed as the mean ± SD of three independent experiments of normal J774 cells. Statistical differences were obtained using ANOVA and Tukey–Kramer multiple comparison tests. * p < 0.05, ** p < 0.01, and *** p < 0.001 denote significance. ns = not significant.
Tumor (SSC-9 and SSC-25) and normal cells (FN1 and J-774) were subjected to treatment for a period of 24 h at the peptides’ IC50 concentrations. After treatment, the cells were trypsinized, centrifuged at 1200 rpm for 5 min, the supernatant was discarded, and the cells were resuspended in complete medium containing MitoRed™ (Sigma-Aldrich, USA) (200 nM/L). Subsequently, the samples were incubated in an incubator at 37 °C with 5% CO2 for 30 min. The tubes were then centrifuged, the supernatant was discarded, and the pellet was resuspended in 200 μL of FACS buffer. Readings were performed using a FACScanto flow cytometer (BD) with 10,000 events, and histograms were acquired and analyzed using FCS Express software 2.0.

A word on the fraction remaining: it is the share of the starting amount still present when the sample was taken. Broadly, the IC50 is the point on the concentration scale where inhibition reaches its midpoint.

Where two headings read alike, the source gives them in different places. Where no end group is shown, it is not given here.

Consider H-ILKKIWKGKKSLF-NH2 [KKK-IsCT1], for which the share remaining at 0.5 h in series [1] (30 min) amounted to 50%. In addition, the share remaining at 6 h in series [1] came out at 8%. In addition, the IC50 entry in the series with FN1 cells, in the series on J774 cells, with SCC-25 cells and in the series with SCC-9 cells was “N/IC50” in each case. For the same substance, the “fragmented DNA” value with SCC-25 tumor cells [2] is listed as 19%.
In the case of ALGKFWPKIKSLF-NH2 [AFPK-IsCT1], the share remaining at 0.5 h in series [1] (30 min) is 50%. In series [1], the amount remaining at 6 h worked out at 8%. Also, the IC50 result in the series on FN1 cells, in the series on J774 cells, with SCC-25 cells and with SCC-9 cells was “N/IC50” in each case. In addition, the “fragmented DNA” value with SCC-25 tumor cells [2] is reported as “No significant DNA fragmentation”. Also, the “increase in fragmented DNA” value with SCC-9 tumor cells came to 13.6%. The “decrease in ΔΨm” value with SCC-25 tumor cells [3] came out at 40.5 ± 0.4%.
Ac-ILKKIWKGKKSLF-NH2 [AC-KKK-IsCT1] registered a metabolised at 0.5 h in series [1] (30 min) of 50%. Also, in series [1], the “time to complete degradation” value is not above 4 h. Also, the IC50 with FN1 cells (read-out: IC50) is 100 µM; in the series with J774 cells, “N/IC50”; in the series on SCC-25 cells, “N/IC50”; in the series on SCC-9 cells it was “N/IC50”. Further, the “fragmented DNA” value in the series on SCC-25 tumor cells [2] was 12.4%.
